Results published in ChEMBL document CHEMBL1255271, “Determinants of in vitro drug susceptibility testing of Plasmodium vivax” (Antimicrob Agents Chemother, 2008).

Legend:
[1] = system: Plasmodium vivax; assay: Antimicrobial activity against Plasmodium vivax trophozoites measured within 30 hrs by microscopy; assay type: functional, organism-based
[2] = system: Plasmodium vivax; assay: Antimicrobial activity against Plasmodium vivax at the ring stage measured within 30 hrs by microscopy; assay type: functional, organism-based
[3] = system: Plasmodium vivax; assay: Antimicrobial activity against Plasmodium vivax at the trophozoites by microscopy treated during ring stage; assay type: functional, organism-based
[4] = system: Plasmodium vivax; assay: Antimicrobial activity against Plasmodium vivax trophozoites measured after 30 hrs by microscopy; assay type: functional, organism-based
[5] = system: Plasmodium vivax; assay: Antimicrobial activity against Plasmodium vivax at the ring stage measured after 30 hrs by microscopy; assay type: functional, organism-based
[6] = system: Plasmodium vivax; assay: Antimicrobial activity against Plasmodium vivax trophozoites by microscopy; assay type: functional, organism-based
[7] = system: Plasmodium vivax; assay: Antimicrobial activity against Plasmodium vivax at the ring stage by microscopy; assay type: functional, organism-based
[8] = system: Plasmodium falciparum; assay: microbe, parasite or virus in culture
Description: Antimicrobial activity against Plasmodium falciparum at the ring stage by microscopy

[9] = system: Plasmodium falciparum; assay: microbe, parasite or virus in culture; remark: listed apart in the source
Description: Antimicrobial activity against Plasmodium falciparum trophozoites by microscopy treated during ring stage

[10] = system: Plasmodium vivax; assay: Antimicrobial activity against slow-growing synchronous Plasmodium vivax by microscopy
[11] = system: Plasmodium vivax; assay: Antimicrobial activity against fast-growing synchronous Plasmodium vivax by microscopy

SMILES	IC50 [1]	IC50 [2]	IC50 [4]	IC50 [5]	IC50 [10]	IC50 [11]	IC50 [3]	IC50 [6]	IC50 [7]	IC50 [8]	IC50 [9]
CCN(CC)Cc1cc(Nc2ccnc3cc(Cl)ccc23)ccc1O	18.9 nM	23.4 nM	16.5 nM	7.85 nM			24.2 nM	22.1 nM	10 nM	15.2 nM	8.2 nM
CCCCN(CCCC)CC(O)c1cc(Cl)cc2c1-c1ccc(Cl)cc1/C2=C/c1ccc(Cl)cc1 (stereo not given) [LUMEFANTRINE]	14.6 nM	24.8 nM	32.9 nM	37.6 nM							
OC(c1cc(C(F)(F)F)nc2c(C(F)(F)F)cccc12)C1CCCCN1 (stereo not given) [MEFLOQUINE]	17.4 nM	22.2 nM	7.27 nM	7.26 nM			12.5 nM	17 nM	6.39 nM		4.6 nM
Clc1ccc2c(N3CCN(CCCN4CCN(c5ccnc6cc(Cl)ccc56)CC4)CC3)ccnc2c1 [PIPERAQUINE]	22.9 nM	31.2 nM	29.1 nM	14.6 nM							

The next lines start with results.

IC50 [1]	IC50 [2]	IC50 [4]	IC50 [5]	IC50 [10]	IC50 [11]	SMILES	IC50 [3]	IC50 [6]	IC50 [7]	IC50 [8]	IC50 [9]
1.6 nM	1.39 nM	1.2 nM	0.83 nM			C[C@H]1[C@H](OC(=O)CCC(=O)O)O[C@@H]2O[C@@]3(C)CC[C@H]4[C@H](C)CC[C@@H]1[C@@]24OO3 [ARTESUNATE]		1.61 nM	0.86 nM		
539 nM	475 nM	298 nM	59.8 nM	39.9 nM	435 nM	CCN(CC)CCCC(C)Nc1ccnc2cc(Cl)ccc12 (stereo not given) [CHLOROQUINE]	2810 nM	478 nM	55.2 nM		
